Results from the supplement of paper PMC10307832.

How the values were obtained:
Assay in all cases: relative viability (nuclei count vs DMSO), 5 days (fraction); higher = more cells survive
ABC-1 = system: ABC-1
In short: (§1)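 Lung cancer cell lines, seeded in 1536-well plates, were treated the following day by pin tool with a single drug or with five library-drug doses (not always all listed) in √10 steps on top of a fixed anchor-drug dose. Cells were fixed and nuclei stained in one step after 5 days, and nuclei were counted. Relative viability is the nuclei count for treated wells divided by that for vehicle wells, reported as medians of duplicate plates.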

HCC-44 = system: HCC-44
In short: as §1

NCI-H23 = system: NCI-H23
In short: as §1

NCI-H2342 = system: NCI-H2342
In short: as §1

ChaGo-K-1 = system: ChaGo-K-1
In short: as §1

NCI-H322M = system: NCI-H322M
In short: as §1

NCI-H1355 = system: NCI-H1355
In short: as §1

201T = system: 201T
In short: as §1

NCI-H661 = system: NCI-H661
In short: as §1

HOP-62 = system: HOP-62
In short: as §1

LC-2-ad = system: LC-2-ad
In short: as §1

NCI-H838 = system: NCI-H838
In short: as §1

With `CCCCCCCCCCCC1=C(O)C(=O)C=C(O)C1=O` [Embelin] + Nc1ncn([C@H]2C[C@H](O)[C@@H](CO)O2)c(=O)n1 [Decitabine] (partner 2 µM) as the molecule, how does the relative viability (ABC-1; first compound 2.53 µM) read?
The relative viability was 1.04.

And the relative viability (ABC-1; first compound 8 µM)?
The relative viability was 1.12.

What about the relative viability (HCC-44; first compound 0.08 µM) of the same molecule?
The relative viability was 0.981.

And the relative viability (HCC-44; first compound 0.8 µM)?
Its relative viability is 0.953.

What about the relative viability (HCC-44; first compound 2.53 µM) of the same molecule?
The relative viability was 0.986.

What about the relative viability (HCC-44; first compound 8 µM) of the same molecule?
The relative viability was 0.944.

What about the relative viability (NCI-H23; first compound 0.08 µM) of the same molecule?
Its relative viability is 0.258.

And the relative viability (NCI-H23; first compound 0.8 µM)?
The relative viability was 0.37.

And the relative viability (NCI-H23; first compound 2.53 µM)?
Its relative viability is 0.329.

What about the relative viability (NCI-H23; first compound 8 µM) of the same molecule?
Its relative viability is 0.29.

What about the relative viability (NCI-H2342; first compound 0.08 µM) of the same molecule?
The relative viability was 0.71.

What about the relative viability (NCI-H2342; first compound 0.8 µM) of the same molecule?
Its relative viability is 0.722.

What about the relative viability (NCI-H2342; first compound 2.53 µM) of the same molecule?
The relative viability was 0.842.

What about the relative viability (NCI-H2342; first compound 8 µM) of the same molecule?
The relative viability was 0.741.

And the relative viability (ChaGo-K-1; first compound 0.08 µM)?
The relative viability was 0.523.

What about the relative viability (ChaGo-K-1; first compound 0.8 µM) of the same molecule?
Its relative viability is 0.531.

What about the relative viability (ChaGo-K-1; first compound 2.53 µM) of the same molecule?
Its relative viability is 0.507.

What about the relative viability (ChaGo-K-1; first compound 8 µM) of the same molecule?
The relative viability was 0.484.

And the relative viability (NCI-H322M; first compound 0.08 µM)?
The relative viability was 0.603.

What about the relative viability (NCI-H322M; first compound 0.8 µM) of the same molecule?
The relative viability was 0.729.

And the relative viability (NCI-H322M; first compound 2.53 µM)?
Its relative viability is 0.813.

And the relative viability (NCI-H322M; first compound 8 µM)?
The relative viability was 0.754.

What about the relative viability (NCI-H1355; first compound 0.08 µM) of the same molecule?
Its relative viability is 0.333.

What about the relative viability (NCI-H1355; first compound 0.8 µM) of the same molecule?
Its relative viability is 0.394.

What about the relative viability (NCI-H1355; first compound 2.53 µM) of the same molecule?
The relative viability was 0.421.

What about the relative viability (NCI-H1355; first compound 8 µM) of the same molecule?
Its relative viability is 0.358.

And the relative viability (201T; first compound 0.08 µM)?
Its relative viability is 0.82.

What about the relative viability (201T; first compound 0.8 µM) of the same molecule?
The relative viability was 0.884.

And the relative viability (201T; first compound 2.53 µM)?
Its relative viability is 0.853.

And the relative viability (201T; first compound 8 µM)?
Its relative viability is 0.831.

What about the relative viability (NCI-H661; first compound 0.08 µM) of the same molecule?
The relative viability was 0.565.

What about the relative viability (NCI-H661; first compound 0.8 µM) of the same molecule?
Its relative viability is 0.614.

And the relative viability (NCI-H661; first compound 2.53 µM)?
The relative viability was 0.649.

What about the relative viability (NCI-H661; first compound 8 µM) of the same molecule?
The relative viability was 0.541.

And the relative viability (HOP-62; first compound 0.08 µM)?
Its relative viability is 0.193.

What about the relative viability (HOP-62; first compound 0.8 µM) of the same molecule?
The relative viability was 0.22.

What about the relative viability (HOP-62; first compound 2.53 µM) of the same molecule?
Its relative viability is 0.205.

What about the relative viability (HOP-62; first compound 8 µM) of the same molecule?
Its relative viability is 0.19.

And the relative viability (LC-2-ad; first compound 0.08 µM)?
The relative viability was 0.788.

And the relative viability (LC-2-ad; first compound 0.8 µM)?
The relative viability was 0.79.

What about the relative viability (LC-2-ad; first compound 2.53 µM) of the same molecule?
Its relative viability is 0.795.

And the relative viability (LC-2-ad; first compound 8 µM)?
The relative viability was 0.782.

And the relative viability (NCI-H838; first compound 0.08 µM)?
Its relative viability is 0.478.

What about the relative viability (NCI-H838; first compound 0.8 µM) of the same molecule?
Its relative viability is 0.485.

And the relative viability (NCI-H838; first compound 2.53 µM)?
Its relative viability is 0.502.

And the relative viability (NCI-H838; first compound 8 µM)?
Its relative viability is 0.321.
